Tests used:
[1] = biological target: Recombinant human IDO1 (rhIDO1) (Homo sapiens (Human), UniProt P14902); assay: Enzymatic assay for IDO1 activity; format: biochemical; settings: read-out: Isolated IDO1 Enayme Assay IC50
Experimental: Recombinant human IDO1 (rhIDO1) was expressed and purified from cultures of EC538 strain of E. coli transformed with pREP4 and pQE9-IDO plasmid. Reaction mixes were set up in 384-well microplates containing 50 mM phosphate buffer, 10 mM ascorbic, 10 μM methylene blue, 100 μg/mL catalase, 80 μM TRP, 0.01% Tween 20 (v/v) mixed with rhIDO1 (15 μL) at a final concentration of 9 nM in a total volume of 30 μL assay medium. The plates were incubated at 37° C. for 30 min, and the enzymatic reaction was terminated by adding piperidine (200 mM) and heated at 65° C. for 20 min. Fluorescence intensity was read at λex 400 nm and λem 500 nm. Test compounds were dissolved in 100% DMSO and pre-diluted in assay medium prior to adding rhIDO1. IDO1 inhibition (%) was calculated as
All experiments were carried out in triplicates, and statistical Analyses were conducted in Prism v5 (Graphpad Software, Inc., La Jolla, CA, USA).

[2] = tested on: lung cancer cell line S (cisplatin-sensitive); assay: Growth inhibition and cytotoxicity assay (trypan blue), S cells; format: cell-based; settings: Homo sapiens
Experimental: (§1) In this study 3 different human-derived lung cancer cell lines were exposed to vehicle control (parental cells B, S and A) or long-term incubation with cisplatin (BC, SC and ALC cells). Long-term incubation with cisplatin induced cisplatin-resistance in the BC, SC and ALC cell lines.
(§2) Cells were seeded in 24-well dishes and treated with various concentrations of inhibitors (i.e. Epacadostat or AT-0174). Briefly, the culture media as well as the trypsinized cells were collected and this mixture was centrifuged at 400×g for 5 min. The supernatant was discarded, re-suspended in 1 mL of Hank's buffer, and assayed for live cells and death cells using trypan blue exclusion method.
(§3) Data from in vitro experiments were performed from three separate biological replicates which were isolated and analyzed in technical triplicates. Separate measurements using the two-tailed t-test and the results were expressed as mean±standard deviation.

[3] = tested on: lung cancer cell line A (cisplatin-sensitive); assay: Growth inhibition and cytotoxicity assay (trypan blue), A cells; format: cell-based; settings: Homo sapiens
Experimental: as §1, §2, §3

[4] = tested on: lung cancer cell line B (cisplatin-sensitive); assay: Growth inhibition and cytotoxicity assay (trypan blue), B cells; format: cell-based; settings: Homo sapiens
Experimental: as §1, §2, §3

[5] = tested on: lung cancer cell line ALC (cisplatin-resistant); assay: Growth inhibition and cytotoxicity assay (trypan blue), ALC cells; format: cell-based; settings: Homo sapiens
Experimental: as §1, §2, §3

[6] = tested on: lung cancer cell line SC (cisplatin-resistant); assay: Growth inhibition and cytotoxicity assay (trypan blue), SC cells; format: cell-based; settings: Homo sapiens
Experimental: as §1, §2, §3

[7] = MTT cell viability in the cellular IDO1/TDO experiments; format: cell-based; settings: mouse, read-out: Cytotoxicity IC50
Experimental: The viability of the cells in each well in the same experiment was determined using the 3-(4,5-dimethylthiazolyl-2-yl)-2,5-diphenyltetrazolium bromide (MTT) colourimetric assay. After the removal of the supernatant for determination of IDO1 inhibition, the cells were incubated with MTT (500 μg/mL) until crystal formation was observed. Plates were centrifuged for 15 min at 2500 g, and then all the supernatant in then wells was discarded. DMSO (100 μL/well) was added to dissolve the crystals and then the absorbance in each well was measured at 570 nm. Cell viability in each well was expressed as a percentage of untreated controls. Triplicate cultures were used for all experiments unless stated otherwise.
The viability of the cells in each well in the same experiment was determined using the 3-(4,5-dimethylthiazolyl-2-yl)-2,5-diphenyltetrazolium bromide (MTT) colourimetric assay.

[8] = tested on: lung cancer cell line BC (cisplatin-resistant); assay: Growth inhibition and cytotoxicity assay (trypan blue), BC cells; format: cell-based; settings: Homo sapiens
Experimental: as §1, §2, §3

[9] = tested on: LLC (cisplatin-sensitive cell tumours); assay: Tumor growth in syngeneic mouse model, LLC allografts; format: in vivo; settings: epacadostat 200 mg/kg P.O. daily
Experimental: LLC or LLC-CR (1×10^6) cells were subcutaneously injected into the flank of C57B6/J male and female mice (5 mice per group, age 6-8 weeks, Jackson laboratory) and allowed to grow for 3 days (average tumor size=50 mm^3) before being treated with the selective IDO1 inhibitor epacadostat at 200 mg/kg daily or with AT-0174 at 170 mg/kg daily (a dual inhibitor of IDO1 and TDO enzymes). Both compounds were administered via oral gavage (P.O.) and diluted with 95% water+5% methylcellulose (0.5%) and stored at −20° C. Compound was prepared every 5 days. Methyl cellulose (95+5%) was used as control (“Veh”). Tumor growth was evaluated every 2 days by measuring tumor volume with calipers according to the following formula: tumor volume=width^2×length×0.5. At the end of the study, mice were sacrificed and the blood, tumor, and lymph nodes were collected and processed for KYN and tryptophan (TRP) measurement and immune cell assessment respectively.
In this example, LLC-CR from the Lewis lung mouse cell line (LLC; see methods) was used to determine, in vivo, the effect of IDO1 or dual IDO1/TDO inhibition on tumor growth. Mice were inoculated with either LLC or LLC-CR and treated with epacadostat (200 mg/kg P.O. 1/day) or AT-0174 (170 mg/kg P.O. 1/day).

Recombinant human IDO1 (rhIDO1), sequence (P14902 whole entry): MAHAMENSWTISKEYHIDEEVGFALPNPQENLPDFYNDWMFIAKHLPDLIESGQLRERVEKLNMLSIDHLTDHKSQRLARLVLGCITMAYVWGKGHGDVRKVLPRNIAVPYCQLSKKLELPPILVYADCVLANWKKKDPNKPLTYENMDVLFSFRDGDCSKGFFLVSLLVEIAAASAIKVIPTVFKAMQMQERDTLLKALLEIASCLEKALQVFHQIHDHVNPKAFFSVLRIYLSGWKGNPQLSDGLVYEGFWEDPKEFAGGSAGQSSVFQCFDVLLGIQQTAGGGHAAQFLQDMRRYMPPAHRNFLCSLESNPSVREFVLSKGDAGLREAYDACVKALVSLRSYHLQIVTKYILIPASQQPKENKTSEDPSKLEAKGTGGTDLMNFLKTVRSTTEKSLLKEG

SMILES	tumor volume, Mean ([9]; day 1, AT-0174 170 mg/kg) [mm^3]	tumor volume, Mean ([9]; day 2, AT-0174 170 mg/kg) [mm^3]	tumor volume, Mean ([9]; day 3, AT-0174 170 mg/kg) [mm^3]	tumor volume, Mean ([9]; day 4, AT-0174 170 mg/kg) [mm^3]	tumor volume, Mean ([9]; day 5, AT-0174 170 mg/kg) [mm^3]	tumor volume, Mean ([9]; day 6, AT-0174 170 mg/kg) [mm^3]	tumor volume, Mean ([9]; day 7, AT-0174 170 mg/kg) [mm^3]	tumor volume, Mean ([9]; day 8, AT-0174 170 mg/kg) [mm^3]	tumor volume, Mean ([9]; day 9, AT-0174 170 mg/kg) [mm^3]	tumor volume, Mean ([9]; day 10, AT-0174 170 mg/kg) [mm^3]	tumor volume, Mean ([9]; day 11, AT-0174 170 mg/kg) [mm^3]	tumor volume, Mean ([9]; day 12, AT-0174 170 mg/kg) [mm^3]	tumor volume, Mean ([9]; day 13, AT-0174 170 mg/kg) [mm^3]	tumor volume, Mean ([9]; day 14, AT-0174 170 mg/kg) [mm^3]	tumor volume, Mean ([9]; day 15, AT-0174 170 mg/kg) [mm^3]	further results
Nc1noc2nc(Cl)c(F)cc12 [Compound 66, 6-Chloro-5-fluoroisoxazolo[5,4-b]pyridin-3-amine]	58.0	79.0	110.0	125.0	115.2	124.0	135.0	140.6	171.0	230.0	340.0	430.0	571.8	645.0	675.0	IC50 [1]: < 1 µM; viability at 12.5 µM ([2]; 12.5 μM AT-0174): 78 ± 7.1%; viability at 25 µM ([2]; 25.0 μM AT-0174): 96.8 ± 19.1%; viability at 50 µM ([2]; 50.0 μM AT-0174): 70.2 ± 14%; viability at 12.5 µM ([3]; 12.5 μM AT-0174): 92.8 ± 8.5%; viability at 25 µM ([3]; 25.0 μM AT-0174): 75.1 ± 14.1%; viability at 50 µM ([3]; 50.0 μM AT-0174): 74.4 ± 7.1%; viability at 12.5 µM ([4]; 12.5 μM AT-0174): 84.8 ± 11.3%; viability at 25 µM ([4]; 25.0 μM AT-0174): 97.9 ± 2.1%; viability at 50 µM ([4]; 50.0 μM AT-0174): 92.2 ± 15.6%; viability at 12.5 µM ([5]; 12.5 μM AT-0174): 76.7 ± 4.2%; viability at 25 µM ([5]; 25.0 μM AT-0174): 62.5 ± 4.9%; viability at 50 µM ([5]; 50.0 μM AT-0174): 67.3 ± 13.4%; viability at 12.5 µM ([6]; 12.5 μM AT-0174): 65.7 ± 6.4%; viability at 25 µM ([6]; 25.0 μM AT-0174): 68.1 ± 2.1%; viability at 50 µM ([6]; 50.0 μM AT-0174): 70 ± 2.1%; IC50 at 24 h [7]: > 100 µM; viability at 12.5 µM ([8]; 12.5 μM AT-0174): 78.8 ± 6.4%; viability at 25 µM ([8]; 25.0 μM AT-0174): 65.3 ± 0.7%; viability at 50 µM ([8]; 50.0 μM AT-0174): 59.9 ± 4.9%
NS(=O)(=O)NCCNc1nonc1C(=NO)Nc1ccc(F)c(Br)c1 [Epacadostat, epacadostat, reference compound]	47.0	108.0	110.0	124.0	137.0	151.0	208.0	290.0	325.0	409.0	563.0	625.0	725.0	785.0	910.0	–

Reference: patent US20250186410A1, “DUAL INHIBITORS OF TRYPTOPHAN DIOXYGENASES (IDO1 AND TDO) AND THEIR USE IN THERAPY” (ANTIDO THERAPEUTICS INTERNATIONAL SÀRL, priority 2022, published 2025)
